Earlier results on one compound are cited in patent US9598354B2, “Fumarate compounds, pharmaceutical compositions thereof, and methods of use” (priority 2015, dated 2017).

For `COC(=O)/C=C/C(=O)OC` [DMF, dimethylfumarate], the aqueous solubility entry was “poor”.
